Data published in the kinase profiling compilation of Christmann-Franck et al. (2016).

Assays:
Assay in all cases: KINOMEscan competition binding
Settings in all cases: compound 0.5 µM
MAPK4 (human) = MAPK4 (human) (UniProt P31152)
[1] = tested on: RET (human), P07949 [M918T]
[2] = tested on: KIT (human), P10721 [L576P]
TLK2 (human) = TLK2 (human) (UniProt Q86UE8)
PKMYT1 (human) = PKMYT1 (human) (UniProt Q99640)
WEE2 (human) = WEE2 (human) (UniProt P0C1S8)
[3] = tested on: FLT3 (human), P36888 [N841I]
[4] = molecular target: JAK1 JH1 catalytic (human) (UniProt P23458)
MYLK2 (human) = MYLK2 (human) (UniProt Q9H1R3)
TSSK1B (human) = TSSK1B (human) (UniProt Q9BXA7)
MAPK14 (human) = MAPK14 (human) (UniProt Q16539)
DYRK2 (human) = DYRK2 (human) (UniProt Q92630)
CSNK1G1 (human) = CSNK1G1 (human) (UniProt Q9HCP0)
TEC (human) = TEC (human) (UniProt P42680)
GSK3B (human) = GSK3B (human) (UniProt P49841)
ERBB2 (human) = ERBB2 (human) (UniProt P04626)
GAK (human) = GAK (human) (UniProt O14976)
ULK2 (human) = ULK2 (human) (UniProt Q8IYT8)
PLK1 (human) = PLK1 (human) (UniProt P53350)
CIT (human) = CIT (human) (UniProt O14578)
IRAK3 (human) = IRAK3 (human) (UniProt Q9Y616)
[5] = tested on: KIT (human), P10721 [D816H]
MAK (human) = MAK (human) (UniProt P20794)
MATK (human) = MATK (human) (UniProt P42679)
MYO3A (human) = MYO3A (human) (UniProt Q8NEV4)
TLK1 (human) = TLK1 (human) (UniProt Q9UKI8)
CPK1 (P.falciparum) = tested on: CPK1 (P.falciparum)
RPS6KA6 KD2 (human) = RPS6KA6 KD2 (human) (UniProt Q9UK32)
ITK (human) = ITK (human) (UniProt Q08881)
EPHB2 (human) = EPHB2 (human) (UniProt P29323)
CDKL5 (human) = CDKL5 (human) (UniProt O76039)
FGFR4 (human) = FGFR4 (human) (UniProt P22455)
MET (human) = MET (human) (UniProt P08581)
MAPK8 (human) = MAPK8 (human) (UniProt P45983)
PIM3 (human) = PIM3 (human) (UniProt Q86V86)
[6] = tested on: LRRK2 (human), Q5S007 [G2019S]
MAP3K3 (human) = MAP3K3 (human) (UniProt Q99759)
PLK3 (human) = PLK3 (human) (UniProt Q9H4B4)
MAP2K5 (human) = MAP2K5 (human) (UniProt Q13163)
BMX (human) = BMX (human) (UniProt P51813)
MAP3K7 (human) = MAP3K7 (human) (UniProt O43318)
MAP4K5 (human) = MAP4K5 (human) (UniProt Q9Y4K4)
Chain of MAP4K5 (human) (Q9Y4K4 whole entry, looked up): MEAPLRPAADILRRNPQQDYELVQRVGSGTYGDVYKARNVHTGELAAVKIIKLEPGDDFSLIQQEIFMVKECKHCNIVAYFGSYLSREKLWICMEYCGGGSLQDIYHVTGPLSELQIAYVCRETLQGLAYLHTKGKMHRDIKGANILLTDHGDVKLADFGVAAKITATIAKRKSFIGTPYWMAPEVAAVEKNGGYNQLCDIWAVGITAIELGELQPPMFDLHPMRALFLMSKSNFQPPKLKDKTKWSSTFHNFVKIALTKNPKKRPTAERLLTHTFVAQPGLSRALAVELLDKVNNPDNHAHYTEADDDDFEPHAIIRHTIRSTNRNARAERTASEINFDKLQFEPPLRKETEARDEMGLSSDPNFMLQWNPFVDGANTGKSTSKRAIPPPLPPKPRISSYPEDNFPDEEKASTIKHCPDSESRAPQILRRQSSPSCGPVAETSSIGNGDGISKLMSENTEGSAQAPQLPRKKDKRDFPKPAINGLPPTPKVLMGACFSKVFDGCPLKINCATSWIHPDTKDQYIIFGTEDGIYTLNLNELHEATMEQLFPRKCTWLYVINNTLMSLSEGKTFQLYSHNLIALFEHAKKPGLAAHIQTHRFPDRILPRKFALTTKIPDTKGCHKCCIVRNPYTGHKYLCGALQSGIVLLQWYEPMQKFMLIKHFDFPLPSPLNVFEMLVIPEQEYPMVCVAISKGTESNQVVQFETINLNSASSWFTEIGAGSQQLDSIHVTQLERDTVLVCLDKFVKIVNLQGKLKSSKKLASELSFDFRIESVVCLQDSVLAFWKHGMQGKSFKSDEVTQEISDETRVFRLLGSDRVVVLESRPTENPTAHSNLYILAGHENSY

Chain of PKMYT1 (human) (Q99640 whole entry, looked up): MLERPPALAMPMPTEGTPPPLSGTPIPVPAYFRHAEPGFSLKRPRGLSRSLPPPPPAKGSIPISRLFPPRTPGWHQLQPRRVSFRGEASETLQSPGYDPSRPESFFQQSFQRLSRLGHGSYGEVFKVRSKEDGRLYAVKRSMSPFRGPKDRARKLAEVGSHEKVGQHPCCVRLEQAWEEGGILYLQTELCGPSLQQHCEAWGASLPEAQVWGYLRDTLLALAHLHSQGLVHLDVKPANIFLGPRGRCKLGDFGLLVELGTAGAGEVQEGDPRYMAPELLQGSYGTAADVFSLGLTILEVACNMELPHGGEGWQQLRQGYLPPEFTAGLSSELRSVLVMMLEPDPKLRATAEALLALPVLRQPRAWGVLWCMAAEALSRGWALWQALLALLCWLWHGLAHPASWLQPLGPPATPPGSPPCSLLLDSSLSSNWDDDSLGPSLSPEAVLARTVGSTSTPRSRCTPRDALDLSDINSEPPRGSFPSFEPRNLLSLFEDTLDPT
Chain of BMX (human) (P51813 whole entry, looked up): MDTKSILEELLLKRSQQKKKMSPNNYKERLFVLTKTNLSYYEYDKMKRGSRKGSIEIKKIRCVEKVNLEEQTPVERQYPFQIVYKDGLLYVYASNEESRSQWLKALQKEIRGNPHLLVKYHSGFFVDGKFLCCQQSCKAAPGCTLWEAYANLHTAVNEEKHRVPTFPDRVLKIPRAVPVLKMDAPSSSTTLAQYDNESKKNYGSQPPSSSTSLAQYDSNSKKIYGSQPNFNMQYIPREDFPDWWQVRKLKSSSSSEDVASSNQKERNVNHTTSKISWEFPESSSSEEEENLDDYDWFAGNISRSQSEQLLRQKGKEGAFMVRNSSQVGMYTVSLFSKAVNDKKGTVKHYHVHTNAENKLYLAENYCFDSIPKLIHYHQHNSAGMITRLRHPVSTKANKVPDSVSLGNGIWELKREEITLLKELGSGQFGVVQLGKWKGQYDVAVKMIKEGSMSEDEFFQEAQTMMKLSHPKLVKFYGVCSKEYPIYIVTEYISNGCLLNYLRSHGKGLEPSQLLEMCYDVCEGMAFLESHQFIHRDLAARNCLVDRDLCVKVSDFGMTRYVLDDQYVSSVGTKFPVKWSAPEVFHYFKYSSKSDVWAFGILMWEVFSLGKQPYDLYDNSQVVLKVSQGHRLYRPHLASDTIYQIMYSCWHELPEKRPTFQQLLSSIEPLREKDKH
Chain of MAP2K5 (human) (Q13163 whole entry, looked up): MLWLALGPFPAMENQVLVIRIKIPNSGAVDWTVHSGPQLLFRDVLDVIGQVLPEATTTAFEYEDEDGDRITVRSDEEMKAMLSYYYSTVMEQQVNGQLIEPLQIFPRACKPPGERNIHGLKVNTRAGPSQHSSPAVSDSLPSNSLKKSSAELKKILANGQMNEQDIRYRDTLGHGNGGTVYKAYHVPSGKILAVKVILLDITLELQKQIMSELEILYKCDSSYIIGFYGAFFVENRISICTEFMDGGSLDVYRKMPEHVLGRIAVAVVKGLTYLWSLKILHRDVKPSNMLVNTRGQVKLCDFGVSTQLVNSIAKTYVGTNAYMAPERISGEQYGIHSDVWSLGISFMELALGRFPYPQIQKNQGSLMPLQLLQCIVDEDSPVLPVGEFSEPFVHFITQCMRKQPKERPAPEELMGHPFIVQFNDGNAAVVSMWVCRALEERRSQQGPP
Chain of MYO3A (human) (Q8NEV4 whole entry, looked up): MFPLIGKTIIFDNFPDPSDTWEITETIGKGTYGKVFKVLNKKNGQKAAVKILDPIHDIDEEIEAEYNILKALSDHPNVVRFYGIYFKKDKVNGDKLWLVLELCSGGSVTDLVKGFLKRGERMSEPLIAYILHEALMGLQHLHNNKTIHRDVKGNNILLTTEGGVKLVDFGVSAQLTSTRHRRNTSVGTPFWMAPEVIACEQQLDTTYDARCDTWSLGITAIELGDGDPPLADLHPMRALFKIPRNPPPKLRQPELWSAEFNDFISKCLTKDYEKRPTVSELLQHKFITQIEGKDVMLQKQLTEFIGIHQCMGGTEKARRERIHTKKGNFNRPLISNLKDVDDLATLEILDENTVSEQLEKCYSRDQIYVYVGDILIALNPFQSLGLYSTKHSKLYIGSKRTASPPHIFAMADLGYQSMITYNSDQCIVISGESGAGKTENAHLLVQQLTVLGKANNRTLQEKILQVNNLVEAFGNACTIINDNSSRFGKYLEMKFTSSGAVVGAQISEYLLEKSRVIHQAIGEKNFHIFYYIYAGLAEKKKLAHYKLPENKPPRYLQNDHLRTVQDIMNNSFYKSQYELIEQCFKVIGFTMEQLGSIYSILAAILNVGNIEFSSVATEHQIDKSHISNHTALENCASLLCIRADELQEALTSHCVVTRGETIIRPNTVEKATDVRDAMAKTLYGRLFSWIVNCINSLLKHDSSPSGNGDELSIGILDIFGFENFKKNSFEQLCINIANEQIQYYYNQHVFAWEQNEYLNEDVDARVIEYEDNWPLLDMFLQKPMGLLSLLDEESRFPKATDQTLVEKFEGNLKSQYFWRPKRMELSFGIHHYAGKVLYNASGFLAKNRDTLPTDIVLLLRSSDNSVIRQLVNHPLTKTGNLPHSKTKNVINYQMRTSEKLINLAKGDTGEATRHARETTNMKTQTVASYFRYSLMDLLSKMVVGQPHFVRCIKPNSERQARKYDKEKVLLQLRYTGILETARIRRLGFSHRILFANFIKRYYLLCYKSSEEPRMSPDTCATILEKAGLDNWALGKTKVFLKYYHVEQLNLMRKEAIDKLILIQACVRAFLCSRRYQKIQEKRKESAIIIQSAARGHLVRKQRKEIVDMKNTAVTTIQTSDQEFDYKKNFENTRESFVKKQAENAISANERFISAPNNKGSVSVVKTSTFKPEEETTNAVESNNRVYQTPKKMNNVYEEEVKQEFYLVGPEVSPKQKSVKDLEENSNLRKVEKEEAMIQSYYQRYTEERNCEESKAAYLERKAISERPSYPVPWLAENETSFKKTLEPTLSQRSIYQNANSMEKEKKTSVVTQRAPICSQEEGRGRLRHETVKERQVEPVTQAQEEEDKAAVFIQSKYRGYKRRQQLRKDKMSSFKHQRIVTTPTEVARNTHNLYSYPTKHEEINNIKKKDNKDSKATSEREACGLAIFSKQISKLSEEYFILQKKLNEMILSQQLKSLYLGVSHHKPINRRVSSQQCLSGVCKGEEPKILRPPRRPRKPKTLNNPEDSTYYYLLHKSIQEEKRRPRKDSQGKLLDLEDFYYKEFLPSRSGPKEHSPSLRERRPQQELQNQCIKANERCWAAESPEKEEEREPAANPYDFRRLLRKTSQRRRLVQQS
Chain of MAPK8 (human) (P45983 whole entry, looked up): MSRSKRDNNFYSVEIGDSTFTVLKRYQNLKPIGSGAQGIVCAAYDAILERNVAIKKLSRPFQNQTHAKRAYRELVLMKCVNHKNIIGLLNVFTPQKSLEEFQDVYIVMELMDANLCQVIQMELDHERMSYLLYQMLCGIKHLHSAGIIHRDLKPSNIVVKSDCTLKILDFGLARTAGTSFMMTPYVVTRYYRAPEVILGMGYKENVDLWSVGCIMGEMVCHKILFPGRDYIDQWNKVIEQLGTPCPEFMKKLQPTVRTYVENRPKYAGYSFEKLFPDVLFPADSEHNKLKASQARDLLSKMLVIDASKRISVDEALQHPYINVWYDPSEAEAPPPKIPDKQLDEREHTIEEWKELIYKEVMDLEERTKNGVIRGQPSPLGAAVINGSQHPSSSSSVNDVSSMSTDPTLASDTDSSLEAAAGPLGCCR
Chain of MATK (human) (P42679 whole entry, looked up): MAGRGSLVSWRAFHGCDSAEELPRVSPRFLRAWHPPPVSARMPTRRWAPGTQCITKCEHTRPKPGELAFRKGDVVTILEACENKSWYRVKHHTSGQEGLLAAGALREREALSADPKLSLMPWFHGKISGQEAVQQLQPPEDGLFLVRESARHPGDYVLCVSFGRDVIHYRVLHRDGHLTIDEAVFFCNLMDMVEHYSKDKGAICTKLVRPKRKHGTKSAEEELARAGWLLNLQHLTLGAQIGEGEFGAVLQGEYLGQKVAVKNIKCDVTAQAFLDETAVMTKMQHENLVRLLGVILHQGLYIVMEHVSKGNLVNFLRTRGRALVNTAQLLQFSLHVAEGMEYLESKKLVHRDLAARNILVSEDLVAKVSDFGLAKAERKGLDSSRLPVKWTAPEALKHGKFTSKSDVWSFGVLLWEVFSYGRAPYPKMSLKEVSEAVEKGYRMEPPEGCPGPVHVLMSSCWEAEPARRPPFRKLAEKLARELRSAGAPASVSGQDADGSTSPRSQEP

Work on `Cn1c2ccccc2c2c3c(c4c5ccccc5n(CCC#N)c4c21)CNC3=O` yielded a kinase still bound, per cent of control (MAPK4 (human)) of 100%, a kinase still bound, per cent of control [1] of 0.15% and a kinase still bound, per cent of control [2] of 46%. The kinase still bound, per cent of control (TLK2 (human)) was 88%, the kinase still bound, per cent of control (PKMYT1 (human)) was 100% and the kinase still bound, per cent of control (WEE2 (human)) was 100%. For the same compound, the kinase still bound, per cent of control [3] was 0%, the kinase still bound, per cent of control [4] was 10% and the kinase still bound, per cent of control (MYLK2 (human)) was 58%. The kinase still bound, per cent of control (TSSK1B (human)) was 82%, the kinase still bound, per cent of control (MAPK14 (human)) was 95% and the kinase still bound, per cent of control (DYRK2 (human)) was 37%. It also gave a kinase still bound, per cent of control (CSNK1G1 (human)) of 100%, a kinase still bound, per cent of control (TEC (human)) of 92% and a kinase still bound, per cent of control (GSK3B (human)) of 81%. The kinase still bound, per cent of control (ERBB2 (human)) was 87%, the kinase still bound, per cent of control (GAK (human)) was 2% and the kinase still bound, per cent of control (ULK2 (human)) was 86%. For the same compound, the kinase still bound, per cent of control (PLK1 (human)) was 100%, the kinase still bound, per cent of control (CIT (human)) was 34% and the kinase still bound, per cent of control (IRAK3 (human)) was 12%. For the same compound, the kinase still bound, per cent of control [5] was 30%, the kinase still bound, per cent of control (MAK (human)) was 100% and the kinase still bound, per cent of control (MATK (human)) was 67%. For the same compound, the kinase still bound, per cent of control (MYO3A (human)) was 35%, the kinase still bound, per cent of control (TLK1 (human)) was 83% and the kinase still bound, per cent of control (CPK1 (P.falciparum)) was 35%. It also gave a kinase still bound, per cent of control (RPS6KA6 KD2 (human)) of 100%, a kinase still bound, per cent of control (ITK (human)) of 40% and a kinase still bound, per cent of control (EPHB2 (human)) of 100%. The kinase still bound, per cent of control (CDKL5 (human)) was 10%, the kinase still bound, per cent of control (FGFR4 (human)) was 100% and the kinase still bound, per cent of control (MET (human)) was 88%. It also gave a kinase still bound, per cent of control (MAPK8 (human)) of 18%, a kinase still bound, per cent of control (PIM3 (human)) of 8.9% and a kinase still bound, per cent of control [6] of 9.4%. The kinase still bound, per cent of control (MAP3K3 (human)) was 2.1%, the kinase still bound, per cent of control (PLK3 (human)) was 100% and the kinase still bound, per cent of control (MAP2K5 (human)) was 58%. For the same compound, the kinase still bound, per cent of control (BMX (human)) was 66%, the kinase still bound, per cent of control (MAP3K7 (human)) was 8% and the kinase still bound, per cent of control (MAP4K5 (human)) was 7.8%.
